Structures can show the parent of a compound that is named as a salt. Where two headings read alike, the source gives them in different places.
Molecular target: SARS-CoV-2 3CLpro (Severe acute respiratory syndrome coronavirus 2, UniProt P0DTD1)
Test: biochemical
Assay type: biochemical
Set-up: Replicate_1 / Replicate_2 / mean / mean (LOPAC_screen_w_protease): unit not given here
[1] = 4 h, LOPAC1280 primary screen with protease, 5 µM compound, replicate 1, read-out: Replicate_1 (LOPAC_screen_w_protease)
[2] = 4 h, LOPAC1280 primary screen with protease, 5 µM compound, replicate 2, read-out: Replicate_2 (LOPAC_screen_w_protease)
[3] = LOPAC1280 primary screen with protease, 5 µM compound, mean of the two replicates
[4] = 4 h, sheet LOPAC_screen_w_protease, LOPAC1280 at 5 µM, mean of two replicates, read-out: mean
[5] = 4 h, sheet LOPAC_screen_w_protease, LOPAC1280 at 5 µM, replicate 1, read-out: Replicate_1
[6] = 4 h, sheet LOPAC_screen_w_protease, LOPAC1280 at 5 µM, replicate 2, read-out: Replicate_2
[7] = sheet LOPAC_screen_w_protease, primary screen with protease, 5 µM, mean of two replicates
[8] = sheet LOPAC_screen_w_protease, primary screen with protease, 5 µM, replicate 1
[9] = sheet LOPAC_screen_w_protease, primary screen with protease, 5 µM, replicate 2

Structure (SMILES): N=C(N)c1ccccc1 [Benzamidine hydrochloride]
- inhibition at 5 µM (4 h, sheet LOPAC_screen_w_protease, primary screen with protease, mean of two replicates, read-out: mean): 2.38%
- inhibition at 5 µM (4 h, sheet LOPAC_screen_w_protease, primary screen with protease, replicate 1, read-out: Replicate_1): 1.49%
- inhibition at 5 µM (4 h, sheet LOPAC_screen_w_protease, primary screen with protease, replicate 2, read-out: Replicate_2): 3.28%

Structure (SMILES): COc1ccc(CC(C)NCC(O)c2ccc(O)c(NC=O)c2)cc1 (stereo not shown) [Formoterol]
- inhibition at 5 µM [1]: 1.5%
- inhibition at 5 µM [2]: 1.19%
- mean (LOPAC_screen_w_protease) (LOPAC1280 primary screen with protease, 5 µM compound, mean of two replicates): 1.3452

Structure (SMILES): CN1CCC(=C2c3ccccc3C=Cc3ccccc32)CC1 [Cyproheptadine hydrochloride]
- inhibition at 5 µM [1]: 4.15%
- inhibition at 5 µM [2]: 0.0977%
- mean (LOPAC_screen_w_protease) [3]: 2.126

Structure (SMILES): COc1cc(C(O)C(=O)O)ccc1O (racemic) [(±)-Vanillylmandelic acid]
- mean (sheet LOPAC_screen_w_protease, LOPAC1280 at 5 µM, mean of two replicates): 1.1
- Replicate_1 (sheet LOPAC_screen_w_protease, LOPAC1280 at 5 µM, replicate 1): 2.648
- Replicate_2 (sheet LOPAC_screen_w_protease, LOPAC1280 at 5 µM, replicate 2): -0.449

Structure (SMILES): C[N+](C)(C)CCOC(=O)CCC(=O)OCC[N+](C)(C)C [Succinylcholine chloride]
- inhibition at 5 µM [4]: 1.08%
- inhibition at 5 µM [5]: 1.05%
- inhibition at 5 µM [6]: 1.11%

Structure (SMILES): NCCc1c[nH]cn1 [Histamine dihydrochloride]
- inhibition at 5 µM (4 h, read-out: Replicate_1): 3.24%
- inhibition at 5 µM (4 h, read-out: Replicate_2): -1.24%
- inhibition at 5 µM (4 h, read-out: mean): 1%

Structure (SMILES): CCCCCCCCCCCCCCCCCC(=O)NCC(COP(=O)([O-])OCC[N+](C)(C)C)OCC (racemic)
- mean (sheet LOPAC_screen_w_protease, primary screen with protease, compound at 5 µM, mean of two replicates): 3.086
- Replicate_1 (sheet LOPAC_screen_w_protease, primary screen with protease, compound at 5 µM, replicate 1): 5.031
- Replicate_2 (sheet LOPAC_screen_w_protease, primary screen with protease, compound at 5 µM, replicate 2): 1.141

Structure (SMILES): c1ccc2c(c1)[I+]c1ccccc1-2 [Diphenyleneiodonium chloride]
- inhibition at 5 µM (4 h, read-out: Replicate_1): 3.49%
- inhibition at 5 µM (4 h, read-out: Replicate_2): 2.49%
- inhibition at 5 µM (4 h, read-out: mean): 2.99%

Structure (SMILES): O=C1NC(=O)C(c2ccccc2)(c2ccccc2)N1 [5,5-Diphenylhydantoin]
- inhibition at 5 µM [4]: 1.1%
- inhibition at 5 µM [5]: 1.83%
- inhibition at 5 µM [6]: 0.367%

Structure (SMILES): CN1CCN(c2nc3cc(C(F)(F)F)ccc3n3cccc23)CC1.O=C(O)/C=C\C(=O)O [CGS-12066A maleate]
- mean (sheet LOPAC_screen_w_protease, LOPAC1280 primary screen at 5 µM, with protease, mean of the two replicates): 0.5818
- Replicate_1 (sheet LOPAC_screen_w_protease, LOPAC1280 primary screen at 5 µM, with protease, replicate 1): 1.428
- Replicate_2 (sheet LOPAC_screen_w_protease, LOPAC1280 primary screen at 5 µM, with protease, replicate 2): -0.2648

Structure (SMILES): CCn1c(=O)[nH]c2cc(Cl)c(Cl)cc21 [DCEBIO]
- mean (LOPAC_screen_w_protease) [3]: 1.96
- Replicate_1 (LOPAC_screen_w_protease) (LOPAC1280 primary screen with protease, 5 µM compound, replicate 1): 3.009
- Replicate_2 (LOPAC_screen_w_protease) (LOPAC1280 primary screen with protease, 5 µM compound, replicate 2): 0.9113

Structure (SMILES): CC(=O)CCCCn1c(=O)c2c(ncn2C)n(C)c1=O [Pentoxifylline]
- inhibition at 5 µM (4 h, sheet LOPAC_screen_w_protease, primary screen with protease, compound at 5 µM, mean of two replicates, read-out: mean): 2.98%
- inhibition at 5 µM (4 h, sheet LOPAC_screen_w_protease, primary screen with protease, compound at 5 µM, replicate 1, read-out: Replicate_1): 2.78%
- inhibition at 5 µM (4 h, sheet LOPAC_screen_w_protease, primary screen with protease, compound at 5 µM, replicate 2, read-out: Replicate_2): 3.18%

Structure (SMILES): O=c1cc(-c2ccc(O)c(O)c2)oc2cc(O)cc(O)c12 [luteolin, reference compound]
- inhibition at 5 µM (4 h, read-out: Replicate_1): 0.919%
- inhibition at 5 µM (4 h, read-out: Replicate_2): 1.72%
- inhibition at 5 µM (4 h, read-out: mean): 1.32%
- inhibition at 5 µM (read-out: inhibition of 3CLpro in the primary screen): 1.3%

Structure (SMILES): Brc1ccc([C@H]2CN3CCSC3=N2)cc1.O=C(O)C(=O)O [S(-)-p-Bromotetramisole oxalate]
- mean [7]: -0.07526
- Replicate_1 [8]: 0.5493
- Replicate_2 [9]: -0.6998

Structure (SMILES): C[C@](N)(CCP(=O)(O)O)C(=O)O.Cl [(S)-MAP4 hydrochloride]
- mean (sheet LOPAC_screen_w_protease, primary screen of LOPAC1280 at 5 µM with protease, mean of the two replicates): 4.027
- Replicate_1 (sheet LOPAC_screen_w_protease, primary screen of LOPAC1280 at 5 µM with protease, replicate 1): 4.444
- Replicate_2 (sheet LOPAC_screen_w_protease, primary screen of LOPAC1280 at 5 µM with protease, replicate 2): 3.611

Structure (SMILES): CC(=O)O[C@H]1C[C@@]2(C)[C@@H](C[C@@H](O)[C@H]3[C@@]4(C)CC[C@@H](O)[C@@H](C)[C@@H]4CC[C@@]32C)/C1=C(\CCC=C(C)C)C(=O)[O-].[Na+] [Fusidic acid sodium]
- mean (sheet LOPAC_screen_w_protease, primary screen with protease, mean of two replicates): 2.25
- Replicate_1 (sheet LOPAC_screen_w_protease, primary screen with protease, replicate 1): 4.338
- Replicate_2 (sheet LOPAC_screen_w_protease, primary screen with protease, replicate 2): 0.1614

Structure (SMILES): O=C(CCc1ccc(O)cc1)c1c(O)cc(O)cc1O [Phloretin]
- inhibition at 5 µM (4 h, read-out: Replicate_1 (LOPAC screen with protease)): 8.32%
- inhibition at 5 µM (4 h, read-out: Replicate_2 (LOPAC screen with protease)): 5.55%
- inhibition at 5 µM (4 h, read-out: mean (LOPAC screen with protease)): 6.94%

Structure (SMILES): Nc1nc(SCc2ccc([N+](=O)[O-])cc2)c2ncn([C@@H]3O[C@H](CO)[C@@H](O)[C@H]3O)c2n1 [S-(4-Nitrobenzyl)-6-thioguanosine]
- mean [7]: -0.2707
- Replicate_1 [8]: 0.3471
- Replicate_2 [9]: -0.8885

Structure (SMILES): CC(=O)OCC1=C(C(=O)O)N2C(=O)[C@@H](NC(=O)CSc3ccncc3)[C@H]2SC1 [Cephapirin sodium]
- inhibition at 5 µM (4 h, sheet LOPAC_screen_w_protease, primary screen of LOPAC1280 at 5 µM with protease, mean of the two replicates, read-out: mean): 4.07%
- inhibition at 5 µM (4 h, sheet LOPAC_screen_w_protease, primary screen of LOPAC1280 at 5 µM with protease, replicate 1, read-out: Replicate_1): 3.36%
- inhibition at 5 µM (4 h, sheet LOPAC_screen_w_protease, primary screen of LOPAC1280 at 5 µM with protease, replicate 2, read-out: Replicate_2): 4.79%

— publication PMC7587356, “High-Throughput Screening for Inhibitors of the SARS-CoV-2 Protease Using a FRET-Biosensor” (Molecules, 2020)
